Assay results reported in patent US8053474B2, “Compound with carboxyl acid group and amide group and application thereof” (Corum Inc., priority 2009, dated 2011).

Tests used:
Mushroom Tyrosinase [1] = assay: Mushroom Tyrosinase Inhibition Test (Dopa base); type: biochemical; details: Dopa base (L-Dopa 1 mg/mL, pH 6.5); sample solution 2% in water, 100 μL in 900 μL substrate; 3 min, 475 nm
Protocol: Mushroom Tyrosinase Inhibition Test (Dopa Base):
Preparation: L-Dopa (L-3,4-dihydroxyphenylalanine; 1 mg/mL) was dissolved in pH 6.5 buffer solution. Samples were dissolved in water and prepared the concentration at 2%.
Method: 900 μL of L-Dopa solution was added into 100 μL of sample solution (or blank solution) and measured by thermo spectronic 475 nm (Aso or Ab0). 15 μL of mushroom […] buffer solution was added into mixture. After reaction for 3 min, mixture was measured by thermo spectronic (As3 or Ab3) (FIG. 1).

Mushroom Tyrosinase [2] = assay: Mushroom Tyrosinase Inhibition Test (Tyrosine base); type: biochemical; details: Tyrosine base (Tyrosine 5 mg/mL, pH 6.5); sample solution 2% in water, 100 μL in 900 μL substrate; 60 minutes, 492 nm
Protocol: Mushroom Tyrosinase Inhibition Test (Tyrosine Base): Preparation: Tyrosine (5 mg/mL) were dissolved in pH 6.5 buffer solution. Samples were dissolved in water and prepared the concentration at 2%. Method: 900 μL of Tyrosine solution was added into 100 μL of sample solution (or blank solution) and measured by thermo spectronic 492 nm (Aso or Ab0). 40 μL of mushroom tyrosinase buffer solution was added into mixture. After reaction for 60 minutes, the mixture was measured by thermo spectronic (As60 or Ab60) (FIG. 2). Calculation: [formula]

Water Solubility = type: physicochemical; details: in water

Mushroom Tyrosinase Inhibition (Mushroom Tyrosinase [1]) | Mushroom Tyrosinase Inhibition (Mushroom Tyrosinase [2]) | Water Solubility (Water Solubility) | Compound
45.7% | 77.2% | 22% | CC(C)N(CCNC(=O)CCCCCCCC(=O)O)C(C)C [(II), 8-(2-Diisopropylamino-ethylcarbamoyl)-octanoic acid]
56.3% | 78.4% | 33% | CN(C)CCCNC(=O)CCCCCCCC(=O)O [(III), 8-(3-Dimethylamino-propylcarbamoyl)-octanoic acid]
60.0% | 99.3% | 29% | CN(C)CCCNC(=O)CCCCCCCCC(=O)O [(V), 9-(3-Dimethylamino-propylcarbamoyl) nonanoic acid]
50.6% | 84.1% | 17% | CN(C)CCNC(=O)CCCCCCCCC(=O)O [(IV), 9-(2-Dimethylamino-ethylcarbamoyl)-nonanoic acid]
74.3% | 82.9% | – | CN(C)CCNC(=O)CCCCCCCC(=O)O [(I), 8-(2-Dimethylamino-ethylcarbamoyl)-octanoic acid]
– | – | <0.5% | O=C(O)CCCCCCCC(=O)O [Azelaic acid, reference compound]
